According to US10556907B2 (AbbVie Inc., priority 2015, dated 2020):
pEC50: −log10 of the molar value.

How the values were obtained:
Assay in all cases: Method 1: intracellular Ca2+ release (FLIPR, Calcium 5) in recombinant CHO-K1 cells
Format in all cases: cell-based
human S1PR1 receptor = molecular target: T1, human S1PR1 receptor (Homo sapiens, UniProt P21453); settings: (1): determined with method 1; read-out: S1P1 EC50
T1 construct: host or cells: CHO-K1
Protocol: (§1) Agonistic activity was measured using two different methods, described below.
(§2) Method 1. Intracellular Ca^2+ Release
(§3) Agonist potency and intrinsic activity was assessed by measurement of intracellular Ca^2+ release. Recombinant CHO-K1 cells (Euroscreen, Brussels, Belgium) expressing human S1PR5, S1PR1, S1PR3 or S1PR4 receptors, aequorin, and GTP binding protein Gq/i5 were cultured using a medium containing nutrient mixture F-12 Ham (Sigma-Aldrich) with 10% FBS, and 100 μg/mL gentamicin and equilibrated at 5% CO2.
(§4) 15.000 cells in 20 μL medium were seeded into Biocoat poly-D-Lysine coated 384 well plates (Becton Dickinson #35-6663) and grown to 95% confluency after 24 h.
(§5) Culture medium was replaced by an assay buffer consisting of HBBS with Ca^2+ and Mg^2+ (Invitrogen #14025-050), 20 mmol/L Hepes (Sigma-Aldrich #H-3375), 2.5 mmol/L probenecid (Sigma-Aldrich #P-8761, and 0.1% BSA (Sigma-Aldrich #A-7030) pH 7.4. The Calcium 5 no-wash FLIPR assay kit (Molecular Devices #5000625) was performed as described in the kit instructions. Cells were incubated with Calcium 5 dye for 1 h at 37° C., 5% CO2 in the dark. After 45 min adaptation to RT assessment of agonist stimulation of intracellular Ca^2+ release was performed by addition of test compounds at concentrations obtained by serial dilution. Phospho-fingolimod was used as positive control. Antagonists were pre-incubated for 10 min with cells before addition of the agonist (phospho-fingolimod at EC80). Measurements were performed using a fluorometric imaging plate reader FLIPR® tetra (Molecular Devices). Agonist at the human S1P receptors were characterized by deducing EC50 (potency) values from a nonlinear fit to the measured fluorescence raw data after normalization to the reference agonist (phospho-fingolimod) curve.

human S1PR5 receptor = molecular target: T2, human S1PR5 receptor (Homo sapiens, UniProt Q9H228); settings: agonist potency, determined with method 1 (symbols A-D); read-out: S1P5 EC50 range
T2 construct: host or cells: CHO-K1
T2 sequence (Q9H228 whole entry): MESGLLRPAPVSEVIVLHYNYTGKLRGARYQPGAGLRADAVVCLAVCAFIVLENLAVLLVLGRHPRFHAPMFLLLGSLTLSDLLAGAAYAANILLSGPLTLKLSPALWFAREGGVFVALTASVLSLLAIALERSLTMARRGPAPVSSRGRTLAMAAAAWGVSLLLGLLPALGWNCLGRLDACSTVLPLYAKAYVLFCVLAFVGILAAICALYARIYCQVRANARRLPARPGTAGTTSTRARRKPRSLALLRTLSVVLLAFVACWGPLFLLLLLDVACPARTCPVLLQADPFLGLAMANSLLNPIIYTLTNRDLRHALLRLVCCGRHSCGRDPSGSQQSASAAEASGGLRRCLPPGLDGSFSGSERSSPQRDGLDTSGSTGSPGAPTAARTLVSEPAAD
Protocol: as §1, §2, §3, §4, §5

human S1PR3 receptor = molecular target: T3, human S1PR3 receptor (Homo sapiens, UniProt Q99500); settings: (1): determined with method 1; read-out: S1P3 EC50
T3 construct: host or cells: CHO-K1
T3 sequence (Q99500 whole entry): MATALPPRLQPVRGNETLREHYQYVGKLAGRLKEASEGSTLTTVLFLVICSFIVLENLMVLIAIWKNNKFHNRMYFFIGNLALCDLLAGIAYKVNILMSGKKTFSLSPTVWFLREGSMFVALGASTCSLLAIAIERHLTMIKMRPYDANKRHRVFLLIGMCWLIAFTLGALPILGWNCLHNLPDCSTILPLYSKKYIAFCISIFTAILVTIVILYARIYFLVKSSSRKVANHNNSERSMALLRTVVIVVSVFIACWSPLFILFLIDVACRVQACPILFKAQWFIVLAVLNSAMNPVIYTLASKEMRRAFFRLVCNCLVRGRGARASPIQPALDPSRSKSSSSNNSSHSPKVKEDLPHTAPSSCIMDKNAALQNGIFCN
Protocol: as §1, §2, §3, §4, §5

T1 sequence (P21453 whole entry): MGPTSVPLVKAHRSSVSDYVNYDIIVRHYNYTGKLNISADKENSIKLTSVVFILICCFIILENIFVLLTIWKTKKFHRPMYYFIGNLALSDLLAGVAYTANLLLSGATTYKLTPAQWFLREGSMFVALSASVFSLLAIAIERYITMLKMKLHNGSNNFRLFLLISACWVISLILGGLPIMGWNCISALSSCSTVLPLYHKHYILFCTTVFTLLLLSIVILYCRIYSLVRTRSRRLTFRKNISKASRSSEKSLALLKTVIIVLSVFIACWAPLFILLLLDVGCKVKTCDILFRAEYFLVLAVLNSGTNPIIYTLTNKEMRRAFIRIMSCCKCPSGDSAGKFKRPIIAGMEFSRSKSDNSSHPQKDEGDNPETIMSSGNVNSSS

pEC50 (human S1PR1 receptor) | pEC50 (human S1PR5 receptor) | pEC50 (human S1PR3 receptor) | Structure (SMILES)
< 6.00 | 6.00 to 7.00 | < 6.00 | CC(CC(=O)O)N1CCc2nc(-c3ccc(OCc4ccccc4)cc3)ncc2C1 (stereo not drawn) [Compound 36, 3-(2-(4-(benzyloxy)phenyl)-7,8-dihydropyrido[4,3-d]pyrimidin-6(5H)-yl)butanoic acid]
< 6.00 | 6.00 to 7.00 | < 6.00 | Cc1ccc(C(F)(F)F)c(COc2ccc(-c3ncc4c(n3)CCN(CCC(=O)O)C4)cc2)c1 [Compound 91, 3-(2-(4-((5-methyl-2-(trifluoromethyl)benzyl)oxy)phenyl)-7,8-dihydropyrido[4,3-d]pyrimidin-6(5H)-yl)propanoic acid]
< 6.00 | 5.00 to 6.00 | < 6.00 | O=C(O)CCN1Cc2ccc(-c3cccc(OCc4ccccc4)c3)nc2C1 [Compound 204, 3-(2-(3-(benzyloxy)phenyl)-5H-pyrrolo[3,4-b]pyridin-6(7H)-yl)propanoic acid]
> 6.00 | > 8.00 | < 6.00 | Cc1cccc(C)c1COc1ccc(-c2ncc3c(n2)CCN(CC(C)C(=O)O)C3)cc1 (stereo not drawn) [Compound 15, 3-(2-(4-((2,6-dimethylbenzyl)oxy)phenyl)-7,8-dihydropyrido[4,3-d]pyrimidin-6(5H)-yl)-2-methylpropanoic acid]
< 6.00 | 5.00 to 6.00 | < 6.00 | CC(C)Oc1ccc(-c2ncc3c(n2)CCN(CCC(=O)O)C3)cc1 [Compound 75, 3-(2-(4-isopropoxyphenyl)-7,8-dihydropyrido[4,3-d]pyrimidin-6(5H)-yl)propanoic acid]
> 6.00 | > 8.00 | < 6.00 | CC(CN1CCc2nc(-c3ccc(OCc4cccc(F)c4F)cc3)ncc2C1)C(=O)O (stereo not drawn) [Compound 16, 3-(2-(4-((2,3-difluorobenzyl)oxy)phenyl)-7,8-dihydropyrido[4,3-d]pyrimidin-6(5H)-yl)-2-methylpropanoic acid]
< 6.00 | > 8.00 | < 6.00 | O=C(O)CCN1CCc2nc(-c3ccc(OCc4ccc(C(F)F)cc4)cc3)ncc2C1 [Compound 77, 3-(2-(4-((4-difluoromethylbenzyl)oxy)phenyl)-7,8-dihydropyrido[4,3-d]pyrimidin-6(5H)-yl)propanoic acid]
< 6.00 | > 8.00 | < 6.00 | CC(CC(=O)O)N1CCc2nc(-c3ccc(OCc4cccc(F)c4)cc3)ncc2C1 (stereo not drawn) [Compound 41, 3-(2-(4-((3-fluorobenzyl)oxy)phenyl)-7,8-dihydropyrido[4,3-d]pyrimidin-6(5H)-yl)butanoic acid]
< 6.00 | 6.00 to 7.00 | < 6.00 | Cc1cc(-c2ccc3c(n2)CCN(CC(=O)O)C3)ccc1OCc1ccc(C(F)(F)F)cc1 [Compound 112, 2-(2-(3-methyl-4-((4-(trifluoromethyl)benzyl)oxy)phenyl)-7,8-dihydro-1,6-naphthyridin-6(5H)-yl)acetic acid]
> 6.00 | > 8.00 | < 6.00 | O=C(O)CCN1CCc2nc(-c3ccc(OCc4ccc(F)c(F)c4)cc3)c(F)cc2C1 [Compound 198, 3-(2-(4-((3,4-difluorobenzyl)oxy)phenyl)-3-fluoro-7,8-dihydro-1,6-naphthyridin-6(5H)-yl)propanoic acid]
< 6.00 | 6.00 to 7.00 | < 6.00 | CC(CN1CCc2nc(-c3ccc(OCc4ccccc4)cc3Cl)ccc2C1)C(=O)O (stereo not drawn) [Compound 108, 3-(2-(4-(benzyloxy)-2-chlorophenyl)-7,8-dihydro-1,6-naphthyridin-6(5H)-yl)-2-methylpropanoic acid]
< 6.00 | > 8.00 | < 6.00 | O=C(O)CCN1CCc2nc(-c3ccc(OCc4ccc(Cl)c(Cl)c4)cc3)ncc2C1 [Compound 73, 3-(2-(4-((3,4-dichlorobenzyl)oxy)phenyl)-7,8-dihydropyrido[4,3-d]pyrimidin-6(5H)-yl)propanoic acid]
< 6.00 | 7.00 to 8.00 | < 6.00 | CC(CC(=O)O)CN1CCc2nc(-c3ccc(OCc4ccccc4)cc3)ncc2C1 (stereo not drawn) [Compound 21, 4-(2-(4-(benzyloxy)phenyl)-7,8-dihydropyrido[4,3-d]pyrimidin-6(5H)-yl)-3-methylbutanoic acid]
< 6.00 | 5.00 to 6.00 | < 6.00 | O=C(O)CCN1CCc2ncc(-c3ccc(OCc4cccc(Cl)c4)cc3)nc2C1 [Compound 222, 3-(3-(4-((3-chlorobenzyl)oxy)phenyl)-7,8-dihydropyrido[3,4-b]pyrazin-6(5H)-yl)propanoic acid]
> 6.00 | > 8.00 | < 6.00 | O=C(O)CCN1CCc2nc(-c3ccc(OCc4cccc(OC(F)(F)F)c4)cc3)ccc2C1 [Compound 151, 3-(2-(4-((3-trifluoromethoxybenzyl)oxy)phenyl)-7,8-dihydro-1,6-naphthyridin-6(5H)-yl)propanoic acid]
< 6.00 | 7.00 to 8.00 | < 6.00 | O=C(O)CCN1CCc2nc(-c3ccc(OCc4ccccc4OC(F)F)cc3)ncc2C1 [Compound 90, 3-(2-(4-((2-(difluoromethoxy)benzyl)oxy)phenyl)-7,8-dihydropyrido[4,3-d]pyrimidin-6(5H)-yl)propanoic acid]
< 6.00 | 6.00 to 7.00 | < 6.00 | O=C(O)CCN1CCc2nc(-c3ccc(OCc4ccc(OC(F)(F)F)cc4)cc3)ccc2C1 [Compound 153, 3-(2-(4-((4-trifluoromethoxybenzyl)oxy)phenyl)-7,8-dihydro-1,6-naphthyridin-6(5H)-yl)propanoic acid]
> 6.00 | > 8.00 | < 6.00 | O=C(O)CCN1CCc2nc(-c3ccc(OCc4cccc(F)c4F)cc3)c(F)cc2C1 [Compound 197]
< 6.00 | > 8.00 | < 6.00 | O=C(O)CCN1CCc2nc(-c3ccc(OCc4cccc(C(F)F)c4)cc3)ncc2C1 [Compound 76, 3-(2-(4-((3-difluoromethylbenzyl)oxy)phenyl)-7,8-dihydropyrido[4,3-d]pyrimidin-6(5H)-yl)propanoic acid]
< 6.00 | 7.00 to 8.00 | < 6.00 | Cc1ccc(C(F)(F)F)cc1COc1ccc(-c2ccc3c(n2)CCN(CCC(=O)O)C3)cc1 [Compound 158, 3-(2-(4-((2-methyl-5-(trifluoromethyl)benzyl)oxy)phenyl)-7,8-dihydro-1,6-naphthyridin-6(5H)-yl)propanoic acid]
< 6.00 | 7.00 to 8.00 | < 6.00 | CC(CN1CCc2nc(-c3ccc(OCc4ccccc4)c(Cl)c3)ccc2C1)C(=O)O (stereo not drawn) [Compound 106, 3-(2-(4-(benzyloxy)-3-chlorophenyl)-7,8-dihydro-1,6-naphthyridin-6(5H)-yl)-2-methylpropanoic acid]
< 6.00 | 7.00 to 8.00 | < 6.00 | CC(CC(=O)O)CN1CCc2nc(-c3ccc(OCc4ccc(Cl)cc4)cc3)ncc2C1 (single isomer, unassigned; (-)) [Compound 213, (−)-4-(2-(4-((4-chlorobenzyl)oxy)phenyl)-7,8-dihydropyrido[4,3-d]pyrimidin-6(5H)-yl)-3-methylbutanoic acid]
